Where a SMILES comes first, the peptide text is derived from it. The star is where a group is joined. X1 = COc1cccc2c1C(=O)c1c(O)c3c(c(O)c1C2=O)C[C@@](O)(C(=O)CO)C[C@@H]3OC1CC(N*)C(O)C(C)O1

The test system of data set [1] is PSA. Briefly: Time required for PSA to hydrolyze 50% (t1/2). The format is ADME. Particulars: PSA (enzyme).
The test system of data set [2] is Mus musculus. Put plainly: Percentage weight reduction relative to vehicle control following intraperitoneal (ip) injection of conjugate dose for 5 consecutive days to nude mice bearing LNCaP tumor xenografts(18.9 umol/kg dose). In kind it is functional.
The subject of data set [3] is LNCaP. Put plainly: Concentration required to kill 50% of tumor cells in PSA producing LNCaP human prostate cancer cell line. In kind it is functional, cell-based.
Data set [4] has as its system LNCaP. Briefly: Percentage PSA reduction relative to vehicle control following intraperitoneal injection of conjugate dose for 5 consecutive days to nude mice bearing LNCaP tumor xenografts. The format is functional, Homo sapiens.
For data set [5], the system named is DuPro. Briefly: Concentration required to kill 50% of tumor cells in PSA nonproducing DuPRO human prostate cancer cell line. The format is functional, cell-based.
Data set [6] deals with Mus musculus. Put plainly: Maximum nonlethal drug dose which could be administered (ip) to non tumor bearing nude mice for 5 consecutive days. In kind it is functional.
Data set [7] concerns Mus musculus. Briefly: Percentage weight reduction relative to vehicle control following intraperitoneal (ip) injection of conjugate dose for 5 consecutive days to nude mice bearing LNCaP tumor xenografts( 21.7 umol/kg dose).
For data set [8], the system named is Mus musculus. Briefly: Percentage weight reduction relative to vehicle control following intraperitoneal (ip) injection of conjugate dose for 5 consecutive days to nude mice bearing LNCaP tumor xenografts( 29.0 umol/kg dose). In kind it is functional.

With `COc1cccc2c1C(=O)c1c(O)c3c(c(O)c1C2=O)C[C@@](O)(C(=O)CO)C[C@@H]3OC1CC(NC(=O)[C@H](CC(C)C)NC(=O)[C@H](CO)NC(=O)[C@@H](CCC(N)=O)NC(=O)[C@H](Cc2ccc(O)cc2)NC(=O)[C@H](CO)NC(=O)[C@H](C)NC(=O)[C@H](CCCN)NC(C)=O)C(O)C(C)O1` (stereo partly drawn), the half-life in data set [1] was above 20 h. Also, the Reduction in data set [2] came out at 26%; in data set [4], 22%. The EC50 is 85 µM in data set [3] and above 100 µM in data set [5]. The compound also returned an MTD in data set [6] above 45.3 µM/kg.
In data set [1], `COc1cccc2c1C(=O)c1c(O)c3c(c(O)c1C2=O)C[C@@](O)(C(=O)CO)C[C@@H]3OC1CC(NC(=O)[C@H](CC(C)C)NC(=O)[C@H](CO)NC(=O)[C@@H](CCC(N)=O)NC(=O)[C@@H](NC(=O)[C@H](CO)NC(=O)[C@H](C)NC(=O)C2CC(O)CN2C(=O)CCC(=O)O)C2CCCCC2)C(O)C(C)O1` (stereo partly drawn) showed a half-life of 0.917 h. Also, the EC50 is 5.7 µM in data set [3] and 100 µM in data set [5]. Besides, the Reduction in data set [7] came to 72%; in data set [4], 94%. The compound also came in with an MTD in data set [6] of 28.9 µM/kg.
In the case of `COc1cccc2c1C(=O)c1c(O)c3c(c(O)c1C2=O)C[C@@](O)(C(=O)CO)C[C@@H]3OC1CC(NC(=O)[C@H](CC(C)C)NC(=O)[C@H](CO)NC(=O)[C@H](CO)NC(=O)[C@H](CO)NC(=O)[C@H](CCC(N)=O)NC(=O)[C@H](Cc2ccc(O)cc2)NC(=O)[C@H](CCCCN)NC(C)=O)C(O)C(C)O1` (stereo partly drawn) (Ac-KYQSSSL-X1), in data set [1], the half-life is 1 h. The Reduction in data set [8] was determined as 70%; in data set [4] it was 90%. The results for the EC50 in data set [3] and in data set [5] were 6.9 µM and above 100 µM, respectively. Also, in data set [6], the MTD was 32.6 µM/kg.

Usually half-life stands for the time in which the quantity being followed falls by half. The term EC50 denotes the concentration at which the effect is half-maximal.

The values above are taken from ChEMBL document CHEMBL1134291, “The synthesis of a prodrug of doxorubicin designed to provide reduced systemic toxicity and greater target efficacy” (J Med Chem, 2001).
